Patent US20250388583A1, “COMPOUNDS AND METHOD FOR PKMYT1 INHIBITION” (Engine Biosciences Pte. Ltd., priority 2022, published 2025)

How the values were obtained:
[1] = target: PKMYT1 (Homo sapiens (Human), UniProt Q99640); experiment: In vitro assay: kinase binding to immobilized ligand, captured kinase measured by qPCR
[2] = target: LCK (Homo sapiens (Human), UniProt P06239); experiment: as above
Description: Example B-1: In Vitro Assay
Compounds that bind the kinase active site and directly (sterically) or indirectly (allosterically) prevent kinase binding to an immobilized ligand and reduce the amount of kinase captured on the solid support. Screening “hits” were identified by measuring the amount of kinase captured in test versus control samples by using a quantitative, precise and ultra-sensitive qPCR method that detect the associated DNA label. In a similar manner, dissociation constants (Kd's) for test compound-kinase interactions were calculated by measuring the amount of kinase captured on the solid support as a function of the test compound concentration.

Sequence of LCK (P06239 whole entry): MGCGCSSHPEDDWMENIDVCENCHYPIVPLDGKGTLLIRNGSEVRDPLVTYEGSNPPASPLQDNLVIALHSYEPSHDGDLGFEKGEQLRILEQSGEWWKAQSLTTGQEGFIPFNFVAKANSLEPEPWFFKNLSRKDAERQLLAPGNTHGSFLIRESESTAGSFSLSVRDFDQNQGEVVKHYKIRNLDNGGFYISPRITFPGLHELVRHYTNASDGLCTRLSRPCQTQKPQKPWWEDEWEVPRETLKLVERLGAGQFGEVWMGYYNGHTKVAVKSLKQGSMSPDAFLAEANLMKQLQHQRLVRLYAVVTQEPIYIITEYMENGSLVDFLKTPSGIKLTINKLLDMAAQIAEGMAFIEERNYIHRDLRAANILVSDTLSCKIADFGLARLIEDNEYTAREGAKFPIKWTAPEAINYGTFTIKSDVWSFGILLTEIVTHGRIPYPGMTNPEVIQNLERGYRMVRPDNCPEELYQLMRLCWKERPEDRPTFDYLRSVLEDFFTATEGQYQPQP
Sequence of PKMYT1 (Q99640 whole entry): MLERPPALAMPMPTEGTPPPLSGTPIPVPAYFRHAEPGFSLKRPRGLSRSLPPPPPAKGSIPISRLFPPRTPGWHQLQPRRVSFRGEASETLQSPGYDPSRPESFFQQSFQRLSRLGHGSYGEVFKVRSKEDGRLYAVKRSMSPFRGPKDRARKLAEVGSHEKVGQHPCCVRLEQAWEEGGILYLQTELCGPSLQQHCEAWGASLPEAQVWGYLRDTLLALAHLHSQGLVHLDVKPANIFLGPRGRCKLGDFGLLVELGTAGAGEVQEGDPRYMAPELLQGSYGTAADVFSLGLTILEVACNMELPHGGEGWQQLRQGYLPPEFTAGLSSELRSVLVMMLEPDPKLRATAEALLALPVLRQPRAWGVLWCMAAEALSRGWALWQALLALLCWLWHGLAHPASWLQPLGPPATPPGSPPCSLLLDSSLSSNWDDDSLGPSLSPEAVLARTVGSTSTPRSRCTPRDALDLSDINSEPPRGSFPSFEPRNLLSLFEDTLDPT

Row | IC50 [1] [nM] | IC50 [2] [nM] | Structure (SMILES)
1 | 100 to 1000 | 100 to 1000 | Cc1c(O)cc(F)c(C)c1-n1c(N)c(C(N)=O)c2cc(Cl)cnc21 (single isomer, unassigned) [Compound 576, 2-amino-5-chloro-1-(3-fluoro-5-hydroxy-2,6-dimethylphenyl)-1H-pyrrolo[2,3-b]pyridine-3-carboxamide]
2 | < 50 | 100 to 1000 | Cc1ncc(O)c(C)c1-n1c(N)c(C(N)=O)c2cc(Cl)cnc21 [Compound 543]
3 | < 50 | 50 to 100 | Cc1ccc(O)c(C)c1-n1c(N)c(C(N)=O)c2cncnc21 [Compound 547, 6-amino-7-(3-hydroxy-2,6-dimethylphenyl)-7H-pyrrolo [2,3-d]pyrimidine-5-carboxamide]
4 | < 50 | < 50 | Cc1cnc2c(c1)c(C(N)=O)c(N)n2-c1c(C)ccc(O)c1N [Compound 556, 2-amino-1-(2-amino-3-hydroxy-6-methylphenyl)-5-methyl-1H-pyrrolo[2,3-b]pyridine-3-carboxamide]
5 | 50 to 100 | 100 to 1000 | Cc1cnc2c(c1)c(C(N)=O)c(N)n2-c1c(C)ncc(O)c1C [Compound 561, 2-Amino-1-(5-hydroxy-2,4-dimethyl-3-pyridyl)-5-methyl-pyrrolo[2,3-b]pyridine-3-carboxamide]
6 | < 50 | < 50 | Cc1c(O)cc(F)c(C)c1-n1c(N)c(C(N)=O)c2cc(Cl)cnc21 [Compound 565, 2-amino-5-chloro-1-(3-fluoro-5-hydroxy-2,6-dimethylphenyl)-1H-pyrrolo[2,3-b]pyridine-3-carboxamide]
7 | < 50 | < 50 | Cc1c(O)cc(F)c(C)c1-n1c(N)c(C(N)=O)c2cncc(F)c21 [Compound 599, 2-amino-7-fluoro-1-(3-fluoro-5-hydroxy-2,6-dimethylphenyl)-1H-pyrrolo[3,2-c]pyridine-3-carboxamide]

Further lines, the compound ahead of its results:

Row | Structure (SMILES) | IC50 [1] [nM] | IC50 [2] [nM]
8 | COc1cnc(C)c(-n2c(N)c(C(N)=O)c3cc(Cl)cnc32)c1C [Compound 542, 2-amino-5-chloro-1-(5-methoxy-2,4-dimethylpyridin-3-yl)-1H-pyrrolo[2,3-b]pyridine-3-carboxamide] | > 1000 | 100 to 1000
9 | Cc1cc2ccoc2c(C)c1-n1c(N)c(C(N)=O)c2cc(Cl)cnc21 [Compound 544, 2-amino-5-chloro-1-(5,7-dimethylbenzofuran-6-yl)-1H-pyrrolo[2,3-b]pyridine-3-carboxamide] | > 1000 | 100 to 1000
10 | Cc1ccc(O)c(C)c1-n1c(N)c(C(N)=O)c2cnc(NCCO)nc21 [Compound 559, 6-amino-7-(3-hydroxy-2,6-dimethylphenyl)-2-((2-hydroxyethyl)amino)-7H-pyrrolo[2,3-d]pyrimidine-5-carboxamide] | < 50 | < 50
11 | Cc1nc(C)c2c(C(N)=O)c(N)n(-c3c(C)ccc(O)c3C)c2n1 [Compound 566, 6-amino-7-(3-hydroxy-2,6-dimethylphenyl)-2,4-dimethyl-7H-pyrrolo[2,3-d]pyrimidine-5-carboxamide] | < 50 | 100 to 1000
12 | Cc1ccc(O)c(C)c1-n1c(N)c(C(N)=O)c2cnc(CO)nc21 [Compound 592, 6-amino-7-(3-hydroxy-2,6-dimethylphenyl)-2-(hydroxymethyl)-7H-pyrrolo[2,3-d]pyrimidine-5-carboxamide] | 50 to 100 | 100 to 1000
13 | Cc1ccc(O)c(C)c1-n1c(N)c(C(N)=O)c2cnc(NC(=O)[C@@H]3CCCN3)nc21 [Compound 593, (S)-6-amino-7-(3-hydroxy-2,6-dimethylphenyl)-2-(pyrrolidine-2-carboxamido)-7H-pyrrolo[2,3-d]pyrimidine-5-carboxamide] | < 50 | 100 to 1000
14 | Cc1ccc(O)c(C)c1-n1c(N)c(C(N)=O)c2cnc(-c3ccc(C(C)(C)C)cc3)nc21 [Compound 600, 6-amino-2-(4-(tert-butyl)phenyl)-7-(3-hydroxy-2,6-dimethylphenyl)-7H-pyrrolo[2,3-d]pyrimidine-5-carboxamide] | 100 to 1000 | 100 to 1000
